Measurements as given in patent publication US10052320B2, “Substituted quinoxalines as FGFR kinase inhibitors” (ASTEX THERAPEUTICS LIMITED, priority 2011, dated 2018).

Assays:
FGFR3 (h) = FGFR3 (h) (Homo sapiens, UniProt P22607); test: FGFR3 (enzymatic assay), TR-FRET; type: biochemical; conditions: read-out: FGFR 3 pIC50 (converted)
Experimental: In a final reaction volume of 30 μL, FGFR3 (h) (40 ng/ml) was incubated with 50 mM HEPES pH 7.5, 6 mM MnCl2, 1 mM DTT, 0.1 mM Na3VO4, 0.01% Triton-X-100, 500 nM Btn-Flt3 and 25 μM ATP in the presence of compound (1% DMSO final). […] Time-Resolved Fluorescence Resonance Energy Transfer (TR-FRET) signal (ex340 nm. Em 620 nm, em 655 nm) was measured afterwards and results are expressed in RFU (Relative Fluorescence Units).

[1] = molecular target: Ba/F3-FGFR3-transfected cells (Homo sapiens, UniProt P22607); test: Ba/F3-FGFR3 (minus IL3) cellular proliferation assay, Alamar Blue; type: cell-based; conditions: for BAF3-FGFR 3 (MIN IL3) 96 well pIC50: minus IL3, 96 well; for BAF3-FGFR 3 (MIN IL3) 384 well pIC50: minus IL3, 384 well
Procedure, shortened: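 Ba/F3-FGFR3 cells in phenol red-free RPMI-1640/10% FBS exposed to compound 24 h at 37° C., then Alamar Blue (resazurin) 4 h; fluorescence ex 540/em 590 nm. Run at 20000 cells/well (384-well) or 10000 cells/well (96-well); counterscreen identical but with 10 ng/ml murine IL3.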

FGFR4 (h) = FGFR4 (h) (Homo sapiens, UniProt P22455); test: FGFR4 (enzymatic assay), TR-FRET; type: biochemical; conditions: read-out: FGFR 4 pIC50 (converted)
Experimental: In a final reaction volume of 30 μL, FGFR4 (h) (60 ng/ml) was incubated with 50 mM HEPES pH 7.5, 6 mM MnCl2, 1 mM DTT, 0.1 mM Na3VO4, 0.01% Triton-X-100, 500 nM Btn-Flt3 and 5 μM ATP in the presence of compound (1% DMSO final). […] Time-Resolved Fluorescence Resonance Energy Transfer (TR-FRET) signal (ex340 nm. Em 620 nm, em 655 nm) was measured afterwards and results are expressed in RFU (Relative Fluorescence Units).

FGFR1 (h) = FGFR1 (h) (Homo sapiens, UniProt P11362); test: FGFR1 (enzymatic assay), TR-FRET; type: biochemical; conditions: read-out: FGFR 1 pIC50 (converted)
Experimental: In a final reaction volume of 30 μL, FGFR1 (h) (25 ng/ml) was incubated with 50 mM HEPES pH 7.5, 6 mM MnCl2, 1 mM DTT, 0.1 mM Na3VO4, 0.01% Triton-X-100, 500 nM Btn-Flt3 and 5 μM ATP in the presence of compound (1% DMSO final). […] Time-Resolved Fluorescence Resonance Energy Transfer (TR-FRET) signal (ex340 nm. Em 620 nm, em 655 nm) was measured afterwards and results are expressed in RFU (Relative Fluorescence Units).

[2] = system: Ba/F3-Flt3-transfected cells in the presence of 10 ng/ml murine IL3; test: Ba/F3-Flt3 (plus IL3) cellular proliferation counterscreen, Alamar Blue; type: cell-based; conditions: Mus musculus; plus 10 ng/ml murine IL3; read-out: BAF3-FLT3 (PLUS IL3) 384 well pIC50 (converted)

Sequence of FGFR4 (h) (P22455 22-802): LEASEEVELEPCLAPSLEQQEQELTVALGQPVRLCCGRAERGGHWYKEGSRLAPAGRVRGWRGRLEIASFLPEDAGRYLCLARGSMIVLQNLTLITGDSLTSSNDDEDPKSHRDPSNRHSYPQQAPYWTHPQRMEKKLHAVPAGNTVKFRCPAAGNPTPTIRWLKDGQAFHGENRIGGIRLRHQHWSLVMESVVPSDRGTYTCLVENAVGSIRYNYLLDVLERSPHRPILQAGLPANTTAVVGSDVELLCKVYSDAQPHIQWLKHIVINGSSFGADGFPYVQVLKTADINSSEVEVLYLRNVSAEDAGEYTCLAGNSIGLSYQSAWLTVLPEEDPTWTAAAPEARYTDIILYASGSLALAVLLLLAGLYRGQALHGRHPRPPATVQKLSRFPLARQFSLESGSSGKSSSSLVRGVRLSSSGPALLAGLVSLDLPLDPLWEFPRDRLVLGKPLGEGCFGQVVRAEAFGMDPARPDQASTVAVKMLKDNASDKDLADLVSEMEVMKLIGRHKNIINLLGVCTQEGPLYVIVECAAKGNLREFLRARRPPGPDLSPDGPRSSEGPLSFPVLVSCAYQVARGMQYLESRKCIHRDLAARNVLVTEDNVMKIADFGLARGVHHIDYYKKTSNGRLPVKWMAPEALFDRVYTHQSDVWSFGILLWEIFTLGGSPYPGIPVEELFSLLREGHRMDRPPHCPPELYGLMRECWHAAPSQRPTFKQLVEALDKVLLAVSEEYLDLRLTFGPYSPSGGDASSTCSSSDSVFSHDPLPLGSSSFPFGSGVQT
Sequence of Ba/F3-FGFR3-transfected cells (P22607 whole entry, change not shown): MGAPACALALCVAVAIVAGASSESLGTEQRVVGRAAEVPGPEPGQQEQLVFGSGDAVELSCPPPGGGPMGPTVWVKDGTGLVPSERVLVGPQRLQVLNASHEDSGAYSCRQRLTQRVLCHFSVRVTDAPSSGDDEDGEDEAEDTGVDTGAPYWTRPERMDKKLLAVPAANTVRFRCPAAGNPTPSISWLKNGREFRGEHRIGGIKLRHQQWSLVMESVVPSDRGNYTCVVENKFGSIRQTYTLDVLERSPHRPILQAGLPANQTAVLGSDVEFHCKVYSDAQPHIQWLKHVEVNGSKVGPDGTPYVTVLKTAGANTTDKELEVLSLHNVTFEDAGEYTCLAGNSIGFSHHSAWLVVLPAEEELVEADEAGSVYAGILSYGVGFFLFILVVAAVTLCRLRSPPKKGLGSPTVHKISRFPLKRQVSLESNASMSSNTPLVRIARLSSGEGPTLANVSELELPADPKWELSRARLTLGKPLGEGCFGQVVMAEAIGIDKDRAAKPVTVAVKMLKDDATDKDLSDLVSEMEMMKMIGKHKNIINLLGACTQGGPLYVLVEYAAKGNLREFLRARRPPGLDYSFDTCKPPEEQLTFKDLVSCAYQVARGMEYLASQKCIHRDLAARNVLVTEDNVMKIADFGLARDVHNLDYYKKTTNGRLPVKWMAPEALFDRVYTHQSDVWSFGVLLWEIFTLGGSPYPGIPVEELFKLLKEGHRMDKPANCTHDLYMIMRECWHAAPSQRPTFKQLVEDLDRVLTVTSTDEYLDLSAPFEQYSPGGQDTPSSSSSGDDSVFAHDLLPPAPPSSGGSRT
Sequence of FGFR3 (h) (P22607 23-806): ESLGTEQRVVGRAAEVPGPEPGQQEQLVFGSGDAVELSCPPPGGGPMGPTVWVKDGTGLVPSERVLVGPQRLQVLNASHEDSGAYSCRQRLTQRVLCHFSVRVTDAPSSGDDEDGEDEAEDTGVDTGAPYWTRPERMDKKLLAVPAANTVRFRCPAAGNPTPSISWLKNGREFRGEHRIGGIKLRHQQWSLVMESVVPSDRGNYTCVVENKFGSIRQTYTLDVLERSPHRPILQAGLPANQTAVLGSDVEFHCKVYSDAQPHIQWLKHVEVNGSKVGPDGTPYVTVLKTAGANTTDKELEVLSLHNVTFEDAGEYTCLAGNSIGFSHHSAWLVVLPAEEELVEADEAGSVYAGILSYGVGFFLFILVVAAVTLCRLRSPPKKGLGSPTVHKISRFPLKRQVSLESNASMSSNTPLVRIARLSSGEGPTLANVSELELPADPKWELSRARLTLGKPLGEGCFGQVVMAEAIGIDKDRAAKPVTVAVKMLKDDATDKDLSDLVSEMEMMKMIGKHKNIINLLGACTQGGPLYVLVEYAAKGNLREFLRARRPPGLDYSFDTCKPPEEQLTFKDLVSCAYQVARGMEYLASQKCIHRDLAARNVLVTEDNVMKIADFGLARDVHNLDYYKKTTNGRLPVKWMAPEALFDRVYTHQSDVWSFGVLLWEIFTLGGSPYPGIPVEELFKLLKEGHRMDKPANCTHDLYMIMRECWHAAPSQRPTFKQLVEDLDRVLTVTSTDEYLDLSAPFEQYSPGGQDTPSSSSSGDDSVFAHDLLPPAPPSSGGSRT
Sequence of FGFR1 (h) (P11362 22-822): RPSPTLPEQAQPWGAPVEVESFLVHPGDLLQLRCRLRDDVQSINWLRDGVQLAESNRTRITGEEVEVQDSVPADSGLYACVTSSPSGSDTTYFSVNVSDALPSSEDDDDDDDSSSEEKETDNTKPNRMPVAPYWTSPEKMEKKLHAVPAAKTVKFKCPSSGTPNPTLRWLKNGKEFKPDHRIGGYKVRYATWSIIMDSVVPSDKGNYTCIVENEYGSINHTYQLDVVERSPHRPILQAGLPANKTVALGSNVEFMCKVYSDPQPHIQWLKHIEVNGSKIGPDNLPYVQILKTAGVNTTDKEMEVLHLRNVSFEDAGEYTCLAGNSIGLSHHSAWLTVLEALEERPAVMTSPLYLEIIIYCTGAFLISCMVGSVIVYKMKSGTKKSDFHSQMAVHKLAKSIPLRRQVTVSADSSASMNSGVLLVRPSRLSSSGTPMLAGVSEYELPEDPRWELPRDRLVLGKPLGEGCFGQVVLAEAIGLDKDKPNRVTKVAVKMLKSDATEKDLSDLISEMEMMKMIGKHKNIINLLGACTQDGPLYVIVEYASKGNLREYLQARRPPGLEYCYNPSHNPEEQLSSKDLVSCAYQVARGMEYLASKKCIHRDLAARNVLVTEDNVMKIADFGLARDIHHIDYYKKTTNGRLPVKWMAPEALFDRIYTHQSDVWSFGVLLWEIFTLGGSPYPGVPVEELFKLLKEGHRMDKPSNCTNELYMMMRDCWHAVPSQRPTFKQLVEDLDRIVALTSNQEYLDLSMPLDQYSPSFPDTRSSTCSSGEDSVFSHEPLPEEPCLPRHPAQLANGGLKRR

| Structure (SMILES) | IC50 (FGFR3 (h)) [nM] | BAF3-FGFR 3 (MIN IL3) 96 well pIC50 [1] | BAF3-FGFR 3 (MIN IL3) 384 well pIC50 [1] | IC50 (FGFR4 (h)) [nM] | IC50 (FGFR1 (h)) [nM] | IC50 [2] [nM] |
| --- | --- | --- | --- | --- | --- | --- |
| COc1cc(OC)cc(N(CC2CC2)c2ccc3ncc(-c4cn(CCO)nn4)nc3c2)c1 [Compound 40] | 49 | 5.04 | ~5.15 | 302 | 77.6 | > 10000 |
| COc1cc(OC)cc(N(CC2CC2)c2ccc3ncc(-c4nnn[nH]4)nc3c2)c1 [Compound 41] | 64.6 | <5 | <5 | 79.4 | 57.5 | > 10000 |
| COc1cc(OC)cc(N(CCCO)c2ccc3ncc(-c4ccc(N5CCNCC5)nc4)nc3c2)c1 [Compound 48] | 3.31 |  | 6.87 | 15.5 | 2.45 | 4170 |
| COc1cc(OC)cc(N(CC2CC2)c2ccc3ncc(-n4cncn4)nc3c2)c1 [Compound 50] | 447 | <5 | <5 | > 1000 | 759 | > 10000 |
| COc1cc(OC)cc(N(Cc2cccc(CN)n2)c2ccc3ncc(-c4ccc(N)nc4)nc3c2)c1 [Compound 51] | 11 |  | ~5.77 | 69.2 | 3.72 | ~7080 |
| COc1cc(OC)cc(N(CC2CC2)c2ccc3ncc(-c4cnco4)nc3c2)c1 [Compound 55] | 30.9 | 5.65 | ~5.25 | 275 | 37.2 | > 10000 |
| COc1cc(OC)cc(N(CC2CC2)c2ccc3ncc(-c4ccn[nH]4)nc3c2)c1 [Compound 58] | 81.3 | 5.56 |  | 550 | 135 | 8320 |
| COc1cc(OC)cc(N(CC2CC2)c2ccc3ncc(-c4nccn4C)nc3c2)c1 [Compound 60] | 955 | <5 | <5 | 1120 | 575 | > 10000 |
| COc1cc(OC)cc(N(CC2CC2)c2ccc3ncc(-n4nccc4C)nc3c2)c1 [Compound 62] | > 1000 | <5 | <5 | > 1000 | > 1000 | > 10000 |
| CCOC(=O)c1ncn(-c2cnc3ccc(N(CC4CC4)c4cc(OC)cc(OC)c4)cc3n2)c1C [Compound 65] | > 1000 | 5.08 | <5 | > 1000 | > 1000 | > 10000 |
| COc1cc(OC)cc(N(CCCO)c2ccc3ncc(-c4ccnc(N)c4)nc3c2)c1 [Compound 66] | 2.09 |  | ~7.05 | 13.2 | 3.09 | > 10000 |
| COc1cc(OC)cc(N(CC2CC2)c2ccc3ncc(-c4cn[nH]n4)nc3c2)c1 [Compound 69] | 61.7 | <5 | <5 | 251 | 79.4 | > 10000 |
| COc1cc(OC)cc(N(CC2CC2)c2ccc3ncc(-c4cnnn4C)nc3c2)c1 [Compound 72] | 389 | <5 | <5 | > 1000 | 537 | > 10000 |
| COc1cc(OC)cc(N(CC(O)CO)c2ccc3ncc(-c4ccc(N)nc4)nc3c2)c1 (stereo not shown) [Compound 74] | 4.37 |  | 6.69 | 26.9 | 7.24 | > 10000 |
| CNC(=O)OCCN(c1cc(OC)cc(OC)c1)c1ccc2ncc(-c3ccc(NC(=O)OC(C)(C)C)nc3)nc2c1 [Compound 80] | ~347 |  | 5.09 | > 1000 | 398 | > 10000 |
| COc1cc(OC)cc(N(CC2CC2)c2ccc3ncc(-c4nnnn4C)nc3c2)c1 [Compound 83] | > 1000 | <5 | <5 | > 1000 | > 1000 | > 10000 |
| COc1cc(OC)cc(N(CC2CC2)c2ccc3ncc(-c4ocnc4C)nc3c2)c1 [Compound 104] | 117 |  | <5 | 575 | 389 | > 10000 |
| COc1cc(OC)cc(N(CC2CO2)c2ccc3ncc(-c4ccc(N)nc4)nc3c2)c1 (stereo not shown) [Compound 110] | 21.4 |  | 6.81 | 145 | 27.5 | > 10000 |
| COc1cc(OC)cc(N(CCO)c2ccc3ncc(-c4ccc(OC)nc4)nc3c2)c1 [Compound 111] | 9.77 |  | ~6.17 | 70.8 | 26.3 | > 10000 |
| COc1cc(OC)cc(N(CCCO)c2ccc3ncc(-c4cccnc4)nc3c2)c1 [Compound 112] | 7.41 |  | ~6.39 | 58.9 | 18.6 | > 10000 |
| CNc1ccc(-c2cnc3ccc(N(CCCO)c4cc(OC)cc(OC)c4)cc3n2)cn1 [Compound 116] | 3.24 |  | 6.59 | 17.8 | 7.24 | > 10000 |
| COc1cc(OC)cc(N(CCCO)c2ccc3ncc(-c4ccc(F)nc4)nc3c2)c1 [Compound 117] | 11.7 |  | 6.25 | 87.1 | 20.4 | > 10000 |
| COc1cc(OC)cc(N(CCO)c2ccc3ncc(-c4ccccc4)nc3c2)c1 [Compound 120] | 3.98 |  | ~6.09 | 20 | 8.91 | > 10000 |
| CNC(=O)c1cc(-c2cnc3ccc(N(CCCNCC(F)(F)F)c4cc(OC)cc(OC)c4)cc3n2)ccn1 [Compound 122] | 37.2 |  | 5.49 | 316 | 83.2 | > 10000 |
